The values that follow are results of earlier work, collected in patent US20090304576A1, “DEVICE FOR DELIVERY OF ANTI-CANCER AGENTS TO TISSUE” (priority 2006, published 2009).

The conditions of the series: diffusion in solid tissue such as brain; estimated.

In the case of `O=NN(CCCl)C(=O)NCCCl` [carmustine], the “maximum effective range from a source” value is listed as “about 5 mm”.
